Reference: ChEMBL document CHEMBL1142990, “Self-organizing maps for identification of new inhibitors of P-glycoprotein” (J Med Chem, 2007)

Molecular target: ATP-dependent translocase ABCB1 (Homo sapiens, UniProt P08183)
Test: Inhibition of P-glycoprotein expressed in MDR CCRF vcr1000 cells by daunorubicin efflux assay

Sequence of ATP-dependent translocase ABCB1 (P08183 whole entry): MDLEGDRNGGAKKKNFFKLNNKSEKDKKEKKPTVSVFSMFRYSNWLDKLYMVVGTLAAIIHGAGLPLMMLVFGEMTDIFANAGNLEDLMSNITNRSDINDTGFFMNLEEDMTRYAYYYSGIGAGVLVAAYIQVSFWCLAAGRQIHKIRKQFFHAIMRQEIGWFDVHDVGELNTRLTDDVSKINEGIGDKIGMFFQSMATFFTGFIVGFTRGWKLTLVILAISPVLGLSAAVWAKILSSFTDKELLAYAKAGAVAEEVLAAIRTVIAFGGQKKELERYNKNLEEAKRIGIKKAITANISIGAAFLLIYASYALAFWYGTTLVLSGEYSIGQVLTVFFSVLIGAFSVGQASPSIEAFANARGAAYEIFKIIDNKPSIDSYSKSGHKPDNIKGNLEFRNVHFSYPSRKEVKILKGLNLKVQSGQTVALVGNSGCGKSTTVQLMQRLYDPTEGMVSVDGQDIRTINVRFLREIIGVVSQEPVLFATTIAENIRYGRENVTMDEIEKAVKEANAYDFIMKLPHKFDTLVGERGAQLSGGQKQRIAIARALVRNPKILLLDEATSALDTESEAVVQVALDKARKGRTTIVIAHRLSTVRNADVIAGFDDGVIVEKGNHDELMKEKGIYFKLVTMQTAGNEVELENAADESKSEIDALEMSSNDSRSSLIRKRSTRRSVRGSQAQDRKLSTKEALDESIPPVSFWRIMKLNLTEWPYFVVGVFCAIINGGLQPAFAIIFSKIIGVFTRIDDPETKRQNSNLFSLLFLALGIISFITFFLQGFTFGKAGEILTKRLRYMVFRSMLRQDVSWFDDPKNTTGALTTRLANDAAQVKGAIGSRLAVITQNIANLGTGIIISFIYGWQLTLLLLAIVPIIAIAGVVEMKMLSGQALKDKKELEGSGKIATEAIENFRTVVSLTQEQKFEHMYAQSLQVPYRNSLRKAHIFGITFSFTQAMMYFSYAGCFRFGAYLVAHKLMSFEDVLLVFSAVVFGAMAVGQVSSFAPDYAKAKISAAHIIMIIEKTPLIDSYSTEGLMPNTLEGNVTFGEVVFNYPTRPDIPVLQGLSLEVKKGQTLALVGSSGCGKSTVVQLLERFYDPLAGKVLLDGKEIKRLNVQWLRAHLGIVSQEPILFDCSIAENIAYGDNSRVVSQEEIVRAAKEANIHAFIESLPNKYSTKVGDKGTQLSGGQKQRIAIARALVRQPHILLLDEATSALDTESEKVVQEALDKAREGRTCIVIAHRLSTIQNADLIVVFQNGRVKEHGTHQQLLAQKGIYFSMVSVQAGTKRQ

| Structure (SMILES) | EC50 [µM] |
| --- | --- |
| CC(=O)c1ccc(OCC(O)CN2CCN(c3ccc(F)cc3)CC2)cc1 (configuration not stated) | 11.9 |
| CC(=O)c1ccc(OCC(O)CN2CCOCC2)cc1 (configuration not stated) | 302 |
| COC(=O)c1ccc(NCC(O)COc2ccccc2C(=O)CCc2ccccc2)cc1 (configuration not stated) | 1.54 |
| CC(=O)c1cccc(OCC(O)CN2CCN(c3ccc(F)cc3)CC2)c1 (configuration not stated) | 10.1 |
| O=C1c2c(cccc2OCC(O)CN2CCCCC2)CC1Cc1ccccc1 (configuration not stated) | 0.212 |
| CC(=O)c1ccc(OCC(O)CN2CCN(c3ccccc3C)CC2)cc1 (configuration not stated) | 1.55 |
| O=C(CCc1ccccc1)c1ccccc1OCC(O)CNc1ccc(C(F)(F)F)cc1 (configuration not stated) | 8.49 |
| O=C1CC(CN2CCCCC2)Oc2ccccc21 (configuration not stated) | 176 |
| CCCN(CC(O)COc1ccccc1C(=O)CCc1ccccc1)C(=O)c1ccccc1 (configuration not stated) | 1.69 |
| CC(C)(C)C(NCC(O)COc1ccccc1C(=O)CCc1ccccc1)c1ccccc1 (configuration not stated) | 0.292 |
| CCC(=O)N(Cc1ccccc1)CC(O)COc1ccccc1C(=O)CCc1ccccc1 (configuration not stated) | 1.65 |
| CC(=O)OC(COc1ccccc1C(=O)CCc1ccccc1)CN1CCCCC1 (configuration not stated) | 0.336 |
| O=C(CCc1ccccc1)c1ccccc1OCC(O)CNc1ccc([N+](=O)[O-])cc1 (configuration not stated) | 2.57 |
| CC1Cc2cccc(OCC(O)CN3CCCCC3)c2C1=O (configuration not stated) | 9.68 |
| CCOC(=O)COc1ccccc1C(=O)CCc1ccccc1 | 23.2 |
| O=C(O)COc1ccccc1C(=O)CCc1ccccc1 | 1590 |
| CC(=O)c1cccc(OCC(O)CN2CCCCC2)c1 (configuration not stated) | 9.07 |
| CC(C)N(CC(O)COc1ccccc1C(=O)CCc1cccc2ccccc12)C(C)C (configuration not stated) | 0.465 |
| CC(=O)c1cccc(OCC(=O)CN2CCN(c3cccc(C)c3C)CC2)c1 | 0.379 |
| O=C(CCc1ccccc1)c1ccccc1OCCCCN1CCOCC1 | 1.01 |
| O=C1CCc2c(OCC(O)CN3CCCCC3)cccc21 (configuration not stated) | 11.2 |
| CC(=O)c1cc(C)ccc1OCC(O)CN1CCCCC1 (configuration not stated) | 5.47 |
| O=C(CCc1cccc2ccccc12)c1ccccc1OCC(O)CN1CCOCC1 (configuration not stated) | 0.73 |
| CCC(=O)c1ccccc1OCC(O)CN1CCC(O)(c2ccccc2)CC1 (configuration not stated) | 0.299 |
| CCCNCC(O)COc1ccc(O)cc1C(=O)CCc1ccccc1 (configuration not stated) [5-HYDROXY PROPAFENONE] | 3.02 |

Other lines, results leading:

| EC50 [µM] | Structure (SMILES) |
| --- | --- |
| 0.075 | O=C(CCc1cccc2ccccc12)c1ccccc1OCC(O)CN1CCC(O)(c2ccccc2)CC1 (configuration not stated) |
| 0.145 | O=C(CCc1ccccc1)c1ccccc1OCC(O)CNC(c1ccccc1)C1CCCCC1 (configuration not stated) |
| 0.192 | O=C(CCc1ccccc1)c1ccccc1OCCCCN1CCN(c2ccc(F)cc2)CC1 |
| 0.142 | O=C1c2cccc(OCC(O)CN3CCCCC3)c2CC1Cc1ccccc1 (configuration not stated) |
| 0.014 | COc1ccc(CCC(=O)c2ccccc2OCC(O)CN2CCN(c3ccccc3C)CC2)cc1 (configuration not stated) |
| 0.21 | CC(C)C(NCC(O)COc1ccccc1C(=O)CCc1ccccc1)c1ccccc1 (configuration not stated) |
| 0.167 | Cc1ccc(N2CCN(CC(O)COc3cccc4c3C(=O)C(Cc3ccccc3)C4)CC2)c(C)c1 (configuration not stated) |
| 0.13 | O=C(CCc1ccccc1)c1ccccc1OCC(O)CN1CCN(C(=O)c2ccccc2)CC1 (configuration not stated) |
| 0.179 | COc1ccc(OCC(O)CN2CCN(c3ccccc3C)CC2)c(C(=O)CCc2ccccc2)c1 (configuration not stated) |
| 0.026 | Cc1ccc(OCC(O)CN2CCN(c3ccccc3C)CC2)c(C(=O)CCc2ccccc2)c1 (configuration not stated) |
| 0.059 | Cc1ccccc1N1CCN(CC(O)COc2ccc(Cl)cc2C(=O)CCc2ccccc2)CC1 (configuration not stated) |
| 0.017 | Cc1ccccc1N1CCN(CC(O)COc2cc(Cl)c(Cl)cc2C(=O)CCc2ccccc2)CC1 (configuration not stated) |
